tested on: bioluminescent sensor strain Escherichia coli MT102 (pSB403); assay: Biosensor assay: quorum sensing inhibition, bioluminescence of the sensor strain; format: cell-based; details: 3oxo-C6-HSL 100 nM; bioluminescence after 4 hours at 30° C.; read-out: IC50
Description: Quorum sensing inhibition of the compounds was investigated with the aid of the bioluminescent sensor strain Escherichia coli MT102 (pSB403) (Winson et al., FEMS Microbiol. Lett. 163:185-92, 1998). Plasmid pSB403 contains the Photobacterium fischeri luxR gene together with the […] promoter region as a transcriptional fusion to the bioluminescence genes luxCDABE of Photorhabdus luminescence.
Inhibitory studies were conducted in a microtitre dish assay as follows: the E. coli sensor strain grown over night in LB medium (Sambrook et al., Molecular Cloning: A Laboratory Manual. 2nd Edn. Cold Spring Harbor Laboratory, New York, 1989) was diluted 1:4 and grown for another 1 hour at 30° C. After addition of 3oxo-C6-HSL (final concentration 100 nM) 100 μl of an exponential culture suspension were filled in the wells of a FluoroNunc Polysorp microtitre dish. The test compounds were added to the culture in different concentrations and bioluminescence was measured after 4 hours of incubation at 30° C. with a Lamda Fluoro 320 Plus reader (Bio-Tek Instruments). Inhibitor-mediated reduction of light emission was correlated with the value obtained without addition of the test compounds. IC50 values (concentration of inhibitor required for 50% inhibition of the signal compared to the signal without inhibitor) were determined by using a fitting function after drawing a graph of the activities of eight different inhibitor concentrations.

Row | SMILES | IC50 [µM]
1 | CCCCCCCCCC(=O)CC(=O)Nc1sccc1C(=O)OC [Compound 122, Z(3-Oxo-dodecanoylamino)-thiophene-3-carboxylic acid methyl ester] | > 100

same assay, conditions: Escherichia coli, 4 h, 3oxo-C6-HSL 100 nM; bioluminescence after 4 hours at 30° C.

Row | SMILES | IC50 [µM]
2 | CCCCCCCC(=O)NNC(=O)c1cccnc1Cl [Compound 94, 2-Chloro-nicotinic acid N′-octanoyl-hydrazide] | 1 to 50
3 | CCOC(=O)CC(=O)NNC(=O)c1sccc1Br [Compound 95] | 1 to 50
4 | CCOC(=O)CC(=O)NNC(=O)c1cc2ccccc2s1 [Compound 96, 3-[N′-(Benzo[b]thiophene-2-carbonyl)-hydrazino]-3-oxo-propionic acid ethyl ester] | 50 to 100
5 | O=C(NNS(=O)(=O)c1ccc(Cl)s1)c1cccs1 [Compound 97, N′-(5-Chloro-thiophen-2-sulfonyl)-thiophene-2-carboxylic acid hydrazide] | 1 to 50
6 | CCCC(=O)NNS(=O)(=O)c1ccc(Cl)s1 [Compound 98, Butyric acid N′-(5-chloro-thiophen-2-sulfonyl)-hydrazide] | 50 to 100
7 | CCCCCCC(=O)NNS(=O)(=O)c1ccc(Cl)s1 [Compound 99, N′-(5-Chloro-thiophen-2-sulfonyl)-heptanoic acid hydrazide] | > 100
8 | CCCCNC(=S)NNC(=O)c1cccs1 [Compound 100, 4-Butyl-1-(thiophene-2-carbonyl)-thiosemicarbazide] | 1 to 50
9 | CCCCCNC(=O)NNC(=O)c1cc(Br)c(Br)s1 [Compound 101, 1-(4,5-Dibromo-thiophene-2-carbonyl)-4-pentyl-semicarbazide] | > 100
10 | O=C(NNC(=O)c1ccc(Br)s1)Nc1ccc(F)cc1C(F)(F)F [Compound 102, 1-(5-Bromo-thiophene-2-carbonyl)-4-(4-fluoro-2-trifluoromethyl-phenyl)-semicarbazide] | > 100
11 | O=C(NNC(=O)c1cc(Br)c(Br)s1)Nc1ccc(Cl)c(C(F)(F)F)c1 [Compound 103, 4-(4-Chloro-3-trifluoromethyl-phenyl)-1-(4,5-dibromo-thiophene-2-carbonyl)-semicarbazide] | 50 to 100
12 | O=C(NNC(=O)c1cc(Br)c(Br)s1)Nc1cccc(C(F)(F)F)c1 [Compound 104, 1-(4,5-Dibromo-thiophene-2-carbonyl)-4-(3-trifluoromethyl-phenyl)-semi-carbazide] | 1 to 50
13 | CSc1ccc(NC(=O)NNC(=O)c2scc(C)c2Cl)cc1 [Compound 105, 1-(3-Chloro-4-methyl-thiophene-2-carbonyl)-4-(4-methylsulfanyl-phenyl)-semicarbazide] | 1 to 50
14 | Cc1csc(C(=O)NNC(=O)Nc2ccc(Br)cc2)c1Cl [Compound 106, 4-(4-Bromo-phenyl)-1-(3-chloro-4-methyl-thiophene-2-carbonyl)-semicarbazide] | 1 to 50
15 | O=C(NNC(=O)c1ccc(Br)s1)Nc1ccccc1CCl [Compound 107, 1-(5-Bromo-thiophene-2-carbonyl)-4-(2-chloromethyl-phenyl)-semicarbazide] | 1 to 50
16 | O=C(NNC(=O)c1ccc(Cl)s1)Nc1ccccc1CCl [Compound 108, 4(2-Chloro-methyl-phenyl)-1-(5-chloro-thiophene-2-carbonyl)-semicarbazide] | 1 to 50
17 | COc1ccc(NC(=O)NNC(=O)c2ccc(Br)s2)cc1 [Compound 109, 1-(5-Bromo-thiophene-2-carbonyl)-4-(4-methoxy-phenyl)-semicarbazide] | > 100
18 | O=C(NNC(=O)c1ccc(Br)s1)Nc1c(F)cccc1F [Compound 110, 1-(5-Bromo-thiophene-2-carbonyl)-4-(2,6-difluoro-phenyl)-semicarbazide] | > 100
19 | O=C(NNC(=O)c1sc2ccccc2c1Cl)Nc1cc(Cl)nc(Cl)c1 [Compound 111, 1-(3-Chloro-benzo[b]thiophen-2-carbonyl)-4-(2,6-dichloro-pyridinyl)-semicarbazide] | > 100
20 | Cc1ccccc1NC(=O)NNC(=O)c1sc2ccccc2c1Cl [Compound 112, 1-(3-Chloro-benzo[b]thiophene-2-carbonyl)-4-o-tolyl-semi-carbazide] | > 100
21 | CCCCCCC(=O)CC(=O)Nc1ccn[nH]1 [Compound 113, 3-Oxo-nonanoic acid (2H-pyrazol-3-yl)-amide] | > 100
22 | CCCCCCC(=O)CC(=O)Nc1ccnn1C [Compound 114, 3-Oxo-nonanoic acid (2methyl-2H-pyrazol-3-yl)-amide] | > 100
23 | CCCCCCCCCC(=O)CC(=O)Nc1ccnn1C [Compound 115, 3-Oxo-dodecanoic acid (2-methyl-2H-pyrazol-3-yl)-amide] | > 100

Row | SMILES | IC50 [µM]
24 | CCCCCCC(=O)CC(=O)Nc1ccnn1CC [Compound 116, 3-Oxo-nonanoic acid (2-ethyl-2H-pyrazol-3-yl)-amide] | > 100
25 | CCCCCCCCCC(=O)CC(=O)Nc1ccnn1CC [Compound 117, 3-Oxo-dodecanoic acid (2-ethyl-2H-pyrazol-3-yl)-amide] | > 100
26 | CCCCCCC(=O)CC(=O)Nc1cc(C)nn1C [Compound 118, 3-Oxo-nonanoic acid (2,5-dimethyl-2H-pyrazol-3-yl)-amide] | > 100
27 | CCCCCCCCCC(=O)CC(=O)Nc1cc(C)nn1C [Compound 119, 3-Oxo-dodecanoic acid (2,5-dimethyl-2H-pyrazol-3-yl)-amide] | > 100
28 | CCCCCCC(=O)CC(=O)Nn1cccn1 [Compound 120, 3-Oxo-nonanoic acid pyrazol-1-ylamide] | > 100
29 | CCCCCCC(=O)CC(=O)Nc1sccc1C(=O)OC [Compound 121, 2-(3-Oxo-nonanoylamino)-thiophene-3-carboxylic acid methyl ester] | > 100
30 | CCCCCCC(=O)CC(=O)Nc1scc(C)c1C(=O)OCC [Compound 123, 4-Methyl-2-(3-oxo-nonanoylamino)-thiophene-3-carboxylic acid ethyl ester] | > 100
31 | CCCCCCCCCC(=O)CC(=O)Nc1scc(C)c1C(=O)OCC [Compound 124, 4-Methyl-2-(3-oxo-dodecanoylamino)-thiophene-3-carboxylic acid ethyl ester] | > 100
32 | CCCCCCC(=O)CC(=O)Nc1cc(C)ns1 [Compound 125, 3-Oxo-nonanoic acid (3-methyl-isothiazol-5-yl)-amide] | > 100
33 | CCCCCCCCCC(=O)CC(=O)Nc1cc(C)ns1 [Compound 126, 3-Oxo-dodecanoic acid (3-methyl-isothiazol-5-yl)-amide] | > 100
34 | CCCCCCC(=O)CC(=O)Nc1nccs1 [Compound 127, 3-Oxo-nonanoic acid thiazol-2-ylamide] | > 100
35 | CCCCCCCCCC(=O)CC(=O)Nc1nccs1 [Compound 128, 3-Oxo-dodecanoic acid thiazol-2-ylamide] | > 100
36 | CCCCCCC(=O)CC(=O)Nc1nc(SC)sc1C(C)=O [Compound 129, 3-Oxo-nonanoic acid (5-acetyl-2-methylsulfanyl-thiazol-4-yl)-amide] | > 100
37 | CCCCCCC(=O)CC(=O)Nc1ccon1 [Compound 130, 3-Oxo-nonanoic acid isoxazol-3-ylamide] | > 100
38 | CCCCCCCCCC(=O)CC(=O)Nc1ccon1 [Compound 131, 3-Oxo-dodecanoic acid isoxazol-3-ylamide] | > 100
39 | CCCCCCC(=O)CC(=O)Nc1cc(C)no1 [Compound 132, 3-Oxo-nonanoic acid (3-methyl-isoxazol-5-yl)-amide] | > 100
40 | CCCCCCCCCC(=O)CC(=O)Nc1cc(C)no1 [Compound 133, 3-Oxo-dodecanoic acid (3-methyl-isoxazol-5-yl)-amide] | > 100
41 | CCCCCCC(=O)CC(=O)Nc1nc(C)co1 [Compound 134, 3-Oxo-nonanoic acid (4-methyl-oxazol-2-yl)-amide] | > 100
42 | CCCCCCC(=O)CC(=O)Nc1oc(C)nc1C#N [Compound 135, 3-Oxo-nonanoic acid (4cyano-2-methyl-oxazol-5-yl)-amide] | 50 to 100
43 | CCCCCCC(=O)CC(=O)Nc1oc(C)c(C)c1C#N [Compound 136, 3-Oxo-nonanoic acid (3-cyano-4,5-dimethyl-furan-2-yl)-amide] | > 100
44 | CCCCCCCCCC(=O)CC(=O)Nc1oc(C)c(C)c1C#N [Compound 137, 3-Oxododecanoic acid (3-cyano-4,5-dimethyl-furan-2-yl)-amide] | > 100
45 | CCCCCCC(=O)CC(=O)Nc1ccc(C(=O)OC)o1 [Compound 138, 5-(3-Oxo-nonanoylamino)-furan-2-carboxylic acid methyl ester] | > 100

— patent publication US20090076012A1, “Modulation of pathogenicity” (priority 2002, published 2009)
